Results on three compounds are retold here after US10364247B2, “Preparation and use of novel protein kinase inhibitors” (Ruijin Hospital Affiliated to Shanghai Jiao Tong University …, priority 2015, dated 2019).

As usually defined, the IC50 is the point on the concentration scale where inhibition reaches its midpoint.

SMILES strings stand for the structures.

What all share (type): cell-based, murine
Assay [1] addresses T1, BaF3-TEL-LYN (Homo sapiens, UniProt P07948).
T1 construct: fused on or other part: P41212 (Transcription factor ETV6)
The assay is described as follows: Antiproliferative activity, kinase-dependent Ba/F3 cells (MTT/MTS). The note with it: 48 hours, cell viability, read-out: tel-LYN IC50. In outline:
(§1)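 Murine Ba/F3 cells transformed with the indicated TEL- or EML4-fusion kinases, seeded at 20,000 cells/well in RPMI/10% FCS. Viability by MTT/MTS; IC50 as concentration reducing viability to 50% of DMSO vehicle control.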

Assay [2] deals with T2, BaF3-EML4-ALK (Homo sapiens, UniProt Q9UM73).
T2 construct: fused on or other part: Q9HC35 (Echinoderm microtubule-associated protein-like 4)
T2 sequence (Q9UM73 whole entry, change not shown, the tested form may be a part): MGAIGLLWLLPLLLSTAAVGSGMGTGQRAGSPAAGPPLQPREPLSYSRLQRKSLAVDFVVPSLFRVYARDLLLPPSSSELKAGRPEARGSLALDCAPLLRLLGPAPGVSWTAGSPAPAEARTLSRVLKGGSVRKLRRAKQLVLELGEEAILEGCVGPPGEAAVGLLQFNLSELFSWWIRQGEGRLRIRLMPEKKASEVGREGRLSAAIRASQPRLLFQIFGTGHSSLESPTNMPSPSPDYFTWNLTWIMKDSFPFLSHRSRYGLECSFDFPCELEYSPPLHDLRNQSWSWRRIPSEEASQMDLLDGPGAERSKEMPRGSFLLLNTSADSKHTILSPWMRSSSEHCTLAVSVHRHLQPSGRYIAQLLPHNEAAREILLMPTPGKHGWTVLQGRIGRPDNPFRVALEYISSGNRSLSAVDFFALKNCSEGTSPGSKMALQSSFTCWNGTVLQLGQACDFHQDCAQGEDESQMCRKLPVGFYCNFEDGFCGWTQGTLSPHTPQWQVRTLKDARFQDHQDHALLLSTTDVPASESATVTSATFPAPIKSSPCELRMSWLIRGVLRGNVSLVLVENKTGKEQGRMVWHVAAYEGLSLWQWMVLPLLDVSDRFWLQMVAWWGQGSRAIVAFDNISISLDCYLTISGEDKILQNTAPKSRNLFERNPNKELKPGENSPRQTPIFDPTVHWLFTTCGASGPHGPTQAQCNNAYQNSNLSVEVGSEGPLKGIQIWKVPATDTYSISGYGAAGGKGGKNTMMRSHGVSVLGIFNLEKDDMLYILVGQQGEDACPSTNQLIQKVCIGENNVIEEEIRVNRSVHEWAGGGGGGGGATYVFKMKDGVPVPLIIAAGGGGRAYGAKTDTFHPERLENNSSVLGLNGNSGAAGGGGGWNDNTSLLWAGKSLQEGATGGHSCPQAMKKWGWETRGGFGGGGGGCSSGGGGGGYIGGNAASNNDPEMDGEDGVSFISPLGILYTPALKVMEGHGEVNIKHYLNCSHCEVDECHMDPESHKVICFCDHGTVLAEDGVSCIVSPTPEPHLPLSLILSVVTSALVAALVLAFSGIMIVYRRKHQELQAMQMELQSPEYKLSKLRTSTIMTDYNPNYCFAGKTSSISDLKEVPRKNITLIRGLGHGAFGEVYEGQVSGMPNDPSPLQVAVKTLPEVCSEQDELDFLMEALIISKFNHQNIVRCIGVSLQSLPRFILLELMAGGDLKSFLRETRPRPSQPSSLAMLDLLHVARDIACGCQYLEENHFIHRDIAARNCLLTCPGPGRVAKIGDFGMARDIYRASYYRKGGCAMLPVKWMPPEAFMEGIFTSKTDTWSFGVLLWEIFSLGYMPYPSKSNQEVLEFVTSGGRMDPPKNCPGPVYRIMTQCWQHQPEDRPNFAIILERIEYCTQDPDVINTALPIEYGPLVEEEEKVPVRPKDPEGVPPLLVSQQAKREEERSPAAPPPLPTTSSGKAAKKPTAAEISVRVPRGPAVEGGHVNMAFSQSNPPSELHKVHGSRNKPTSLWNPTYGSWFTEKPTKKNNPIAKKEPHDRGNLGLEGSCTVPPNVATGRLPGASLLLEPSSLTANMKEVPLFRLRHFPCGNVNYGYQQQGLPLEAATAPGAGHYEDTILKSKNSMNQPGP
Described as above. The settings on record: 48 hours, cell viability, read-out: EML4-ALK IC50. Put shortly:
as §1

Assay [3] deals with T3, BaF3-TEL-TIE1 (Homo sapiens, UniProt P35590).
T3 construct: fused on or other part: P41212 (Transcription factor ETV6)
T3 sequence (P35590 whole entry, change not shown, the tested form may be a part): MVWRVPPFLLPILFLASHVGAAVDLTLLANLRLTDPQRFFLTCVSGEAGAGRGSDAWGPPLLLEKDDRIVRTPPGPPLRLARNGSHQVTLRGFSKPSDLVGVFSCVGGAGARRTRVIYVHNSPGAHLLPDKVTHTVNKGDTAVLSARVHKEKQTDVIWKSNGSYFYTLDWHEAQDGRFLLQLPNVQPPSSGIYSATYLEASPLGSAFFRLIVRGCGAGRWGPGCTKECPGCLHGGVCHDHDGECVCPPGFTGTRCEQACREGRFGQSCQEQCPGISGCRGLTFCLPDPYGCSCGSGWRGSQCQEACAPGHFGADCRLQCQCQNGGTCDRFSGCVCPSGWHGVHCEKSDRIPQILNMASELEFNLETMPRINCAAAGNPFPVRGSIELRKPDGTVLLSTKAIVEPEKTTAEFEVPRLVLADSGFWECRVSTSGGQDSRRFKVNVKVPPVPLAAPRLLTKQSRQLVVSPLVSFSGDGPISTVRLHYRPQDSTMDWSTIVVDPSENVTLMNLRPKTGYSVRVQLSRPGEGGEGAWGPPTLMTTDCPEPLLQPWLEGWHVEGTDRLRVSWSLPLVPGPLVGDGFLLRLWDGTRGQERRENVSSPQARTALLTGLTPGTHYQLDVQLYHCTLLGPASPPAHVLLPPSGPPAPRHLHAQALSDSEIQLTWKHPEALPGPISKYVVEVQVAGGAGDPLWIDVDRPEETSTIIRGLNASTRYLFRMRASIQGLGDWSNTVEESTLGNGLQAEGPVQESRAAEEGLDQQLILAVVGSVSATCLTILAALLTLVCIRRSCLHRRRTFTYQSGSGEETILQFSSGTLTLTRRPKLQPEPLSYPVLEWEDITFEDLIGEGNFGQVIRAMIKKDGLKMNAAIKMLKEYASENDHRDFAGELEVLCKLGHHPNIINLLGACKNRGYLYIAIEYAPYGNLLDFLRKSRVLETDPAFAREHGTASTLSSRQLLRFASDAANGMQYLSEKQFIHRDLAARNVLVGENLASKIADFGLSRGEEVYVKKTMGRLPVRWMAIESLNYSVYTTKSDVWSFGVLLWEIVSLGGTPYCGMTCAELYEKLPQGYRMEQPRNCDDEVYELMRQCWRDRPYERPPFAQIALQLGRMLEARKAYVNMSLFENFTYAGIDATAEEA
The description is as above. The settings on record: 48 hours, cell viability, read-out: tel-TIE1 IC50. In outline: as §1

For assay [4], the target named is T4, BaF3-TEL-HCK (Homo sapiens, UniProt P08631).
T4 construct: fused on or other part: P41212 (Transcription factor ETV6)
T4 sequence (P08631 whole entry, change not shown, the tested form may be a part): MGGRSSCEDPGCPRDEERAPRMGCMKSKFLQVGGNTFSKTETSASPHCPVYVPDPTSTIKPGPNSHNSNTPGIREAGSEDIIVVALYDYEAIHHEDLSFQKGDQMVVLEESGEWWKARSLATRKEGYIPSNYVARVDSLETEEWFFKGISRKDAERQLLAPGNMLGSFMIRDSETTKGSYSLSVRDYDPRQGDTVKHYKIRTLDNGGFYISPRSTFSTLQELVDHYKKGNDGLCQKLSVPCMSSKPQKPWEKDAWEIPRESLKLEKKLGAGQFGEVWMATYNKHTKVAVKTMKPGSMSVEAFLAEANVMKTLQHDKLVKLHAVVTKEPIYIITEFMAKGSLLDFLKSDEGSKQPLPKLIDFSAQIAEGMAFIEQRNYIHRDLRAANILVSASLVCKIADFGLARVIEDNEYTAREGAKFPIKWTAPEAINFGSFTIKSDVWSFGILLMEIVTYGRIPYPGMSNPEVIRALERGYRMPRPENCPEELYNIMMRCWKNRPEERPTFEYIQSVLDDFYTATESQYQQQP
Described as above. The note with it: 48 hours, cell viability, read-out: Tel-HCK IC50. In outline:
as §1

Assay [5] has as its target T5, BaF3-TEL-INSR (Homo sapiens, UniProt P06213).
T5 construct: fused on or other part: P41212 (Transcription factor ETV6)
Described as above. The settings on record: 48 hours, cell viability, read-out: Tel-INSR IC50. Put shortly: as §1

The subject of assay [6] is Wt-BaF3. The assay is described as follows: Parental Ba/F3 cell proliferation (CellTiter Glo). The settings on record: Mus musculus, parental BaF/3 cells, 48 hours. On the procedure: The murine cell line used is the BaF/3 cell line transformed with BCR/ABL cDNA (BaF/3-p210) or BCR/ABL-T315I mutant (Ba/F3-p210-T315I). These cells are maintained in RPMI/10% fetal calf serum (RPMI/FCS) supplemented with penicillin 50 μg/mL, streptomycin 50 μg/mL and L-glutamine […]. Untransformed BaF/3 cells (Wt-BaF/3) are similarly maintained with the addition of 15% of WEHI conditioned medium as a source of IL3.
(§2) The BaF/3 cell line transformed with oncogenic NRAS or KRAS (BaF/3-NRASD12 or BaF/3-KRASD12) and the parental BaF/3 cells were used to measure the abilities of compounds of the invention to suppress RAS transformation (Table 5). Cells were seeded at a density of 5000 cells/well into 96-well plates. […] The background control wells to which media with no cells added and the vehicle control wells were included on each plate in triplicate. Cell viability was determined using CellTiter Glo Assay (Promega) according to manufacture's instruction with a minor modification of diluting 1 part CellTiter Glo reagent to 4 parts phosphate buffered saline (PBS) before use. The luminescence value was read out by an Envision (PerkinElmer).

Assay [7] has as its target T6, BaF3-BCR/ABL-T315I (Homo sapiens, UniProt P00519, T315I, cells depend on it).
T6 construct: fused on or other part: P11274 (Breakpoint cluster region protein)
The assay is described as follows: Antiproliferative activity, kinase-dependent Ba/F3 cells (MTT/MTS). The settings on record: 48 hours, cell viability, read-out: BCR/ABL T315I IC50. In outline:
(§3)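 Murine Ba/F3 cells transformed with BCR/ABL (p210) or BCR/ABL-T315I, grown in RPMI/10% FCS without IL3, were seeded at 20,000 cells/well. Viability was read by MTT/MTS. IC50 is the concentration reducing viability to 50% of DMSO vehicle control.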

Assay [8] addresses T7, BaF3-BCR/ABL (Homo sapiens, UniProt P00519).
T7 construct: fused on or other part: P11274 (Breakpoint cluster region protein)
The assay is described as above. The note with it: 48 hours, cell viability, read-out: BCR/ABL IC50. In outline:
as §3

Assay [9] concerns BaF3-KRASD12. Briefly: Oncogenic RAS dependent cell proliferation (CellTiter Glo). The note with it: Mus musculus, BaF3-KRASD12 cells, 48 hours, read-out: KRas-BaF3 IC50. On the procedure:
as §2
Background: Cellular ATP, detected with luciferase, serves as a proxy for viable cell number.

For assay [10], the system named is BaF3-NRASD12. Described as above. The settings on record: Mus musculus, BaF3-NRASD12 cells, 48 hours, read-out: NRas-BaF3 IC50. The protocol: as §2

T5 sequence (P06213 whole entry, stated change not applied, the tested form may be a part): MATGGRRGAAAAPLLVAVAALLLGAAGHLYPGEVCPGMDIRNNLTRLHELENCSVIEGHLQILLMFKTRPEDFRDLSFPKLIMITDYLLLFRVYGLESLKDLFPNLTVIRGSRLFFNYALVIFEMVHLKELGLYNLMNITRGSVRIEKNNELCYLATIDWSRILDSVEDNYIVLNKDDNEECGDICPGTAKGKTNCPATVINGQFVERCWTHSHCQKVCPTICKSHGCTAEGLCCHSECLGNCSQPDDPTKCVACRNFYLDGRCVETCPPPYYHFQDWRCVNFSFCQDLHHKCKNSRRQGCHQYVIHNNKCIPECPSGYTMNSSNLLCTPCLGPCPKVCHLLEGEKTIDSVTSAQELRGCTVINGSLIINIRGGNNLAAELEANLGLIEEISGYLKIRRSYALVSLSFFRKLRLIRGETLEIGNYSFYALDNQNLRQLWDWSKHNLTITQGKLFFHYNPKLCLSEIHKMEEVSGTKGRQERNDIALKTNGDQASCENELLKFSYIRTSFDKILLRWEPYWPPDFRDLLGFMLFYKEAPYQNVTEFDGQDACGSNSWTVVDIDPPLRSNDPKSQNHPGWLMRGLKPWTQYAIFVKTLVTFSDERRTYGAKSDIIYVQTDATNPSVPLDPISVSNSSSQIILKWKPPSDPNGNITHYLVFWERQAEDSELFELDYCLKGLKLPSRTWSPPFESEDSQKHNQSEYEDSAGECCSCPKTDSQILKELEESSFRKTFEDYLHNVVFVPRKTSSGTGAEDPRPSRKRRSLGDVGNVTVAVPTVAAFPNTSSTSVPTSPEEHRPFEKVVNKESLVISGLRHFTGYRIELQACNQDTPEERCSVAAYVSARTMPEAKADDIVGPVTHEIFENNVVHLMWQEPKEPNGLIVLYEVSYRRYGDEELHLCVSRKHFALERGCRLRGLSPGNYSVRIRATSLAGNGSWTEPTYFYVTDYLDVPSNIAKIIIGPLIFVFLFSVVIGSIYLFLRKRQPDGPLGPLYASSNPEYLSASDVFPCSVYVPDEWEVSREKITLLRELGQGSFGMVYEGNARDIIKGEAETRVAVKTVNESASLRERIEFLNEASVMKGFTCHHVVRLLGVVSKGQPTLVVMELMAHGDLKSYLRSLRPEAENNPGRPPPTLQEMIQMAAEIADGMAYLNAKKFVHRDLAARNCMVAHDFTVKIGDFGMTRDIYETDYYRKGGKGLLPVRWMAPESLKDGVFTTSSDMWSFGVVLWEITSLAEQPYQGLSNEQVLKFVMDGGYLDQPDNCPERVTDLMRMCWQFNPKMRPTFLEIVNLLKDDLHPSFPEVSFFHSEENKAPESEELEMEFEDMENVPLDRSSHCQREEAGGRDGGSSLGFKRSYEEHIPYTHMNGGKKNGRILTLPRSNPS

As for `CCN1CN(c2cc(NC(=O)c3cccc(C(F)(F)F)c3)ccc2C)Cc2cnc(Nc3ccc(C)nc3)nc21` [IB-1, N-(3-(1-ethyl-7-((6-methylpyridin-3-yl)amino)-1,4-dihydropyrimido[4,5-d]pyrimidin-3(2H)-yl)-4-methylphenyl)-3-(trifluoromethyl)benzamide], the GI50 in [1] worked out at 1260 nM; in [2], 2640 nM; in assay [3] it was 1290 nM; in assay [4], 327 nM; in assay [5] it was 3230 nM; in assay [7], 881 nM. The GI50 in assay [8] is 5.96 nM. Besides, the figures for the IC50 in assay [6], in [9] and in assay [10] were 4840 nM, 2110 nM and 1500 nM, respectively.

As for `CCN(CC)c1ccc(Nc2ncc3c(n2)N(C)CN(c2cc(NC(=O)c4cccc(C(F)(F)F)c4)ccc2C)C3)cn1` [IA-12, N-(3-(7-((6-(diethylamino)pyridin-3-yl)amino)-1-methyl-1,4-dihydropyrimido[4,5-d]pyrimidin-3(2H)-yl)-4-methylphenyl)-3-(trifluoromethyl)benzamide], the GI50 in [1] is 1160 nM; in assay [2], 3190 nM; in assay [3], 1350 nM; in [4], 3070 nM; in assay [5] it was 977 nM; in [7], 4500 nM. Besides, the GI50 in [8] came to 205 nM. In addition, the IC50 in assay [6] amounted to 4110 nM; in assay [9], 1820 nM; in assay [10] it was 2300 nM.

In the case of `Cc1ccc(NC(=O)c2cccc(C(F)(F)F)c2)cc1N1Cc2cnc(Nc3ccc(N4CCC(O)CC4)nc3)nc2N(C)C1` [IA-13, N-(3-(7-((6-(4-hydroxypiperidin-1-yl)pyridin-3-yl)amino)-1-methyl-1,4-dihydropyrimido[4,5-d]pyrimidin-3(2H)-yl)-4-methylphenyl)-3-(trifluoromethyl)benzamide], the GI50 in assay [1] is 132 nM; in [2] it was 1870 nM; in assay [3], 289 nM; in assay [4] it was 192 nM; in [5] it was 320 nM; in assay [7], 226 nM. In addition, the GI50 in assay [8] turned out to be 5.85 nM. Besides, the half-inhibitory concentration (IC50) in assay [6] came out at 2340 nM; in [9], 402 nM; in [10] it was 501 nM.
